ChEMBL document CHEMBL6087454, “Identification of Novel Organo-Se BTSA-Based Derivatives as Potent, Reversible, and Selective PPARγ Covalent Modulators for Antidiabetic Drug Discovery” (J Med Chem, 2025)
The source made the active and inactive calls. The calls are words filed in the database; no cut-off is given here.

What was measured:
Mus musculus [1] = assay: Antidiabetic activity in male db/db mouse model assessed as downregulation of aP2 gene expression in white adipose tissue at 2.5 to 10 mg/kg/day, ip administered for 4 weeks by RT-qPCR analysis; assay type: functional, organism-based; details: dose 2.5-10 mg/kg/day
[2] = target: T1, Peroxisome proliferator-activated receptor alpha (Homo sapiens) (UniProt Q07869); assay: Binding affinity to PPAR-alpha (unknown origin) at 0.5 uM in presence of fluormone pan-PPAR green tracer by TR-FRET assay
T1 sequence (whole entry): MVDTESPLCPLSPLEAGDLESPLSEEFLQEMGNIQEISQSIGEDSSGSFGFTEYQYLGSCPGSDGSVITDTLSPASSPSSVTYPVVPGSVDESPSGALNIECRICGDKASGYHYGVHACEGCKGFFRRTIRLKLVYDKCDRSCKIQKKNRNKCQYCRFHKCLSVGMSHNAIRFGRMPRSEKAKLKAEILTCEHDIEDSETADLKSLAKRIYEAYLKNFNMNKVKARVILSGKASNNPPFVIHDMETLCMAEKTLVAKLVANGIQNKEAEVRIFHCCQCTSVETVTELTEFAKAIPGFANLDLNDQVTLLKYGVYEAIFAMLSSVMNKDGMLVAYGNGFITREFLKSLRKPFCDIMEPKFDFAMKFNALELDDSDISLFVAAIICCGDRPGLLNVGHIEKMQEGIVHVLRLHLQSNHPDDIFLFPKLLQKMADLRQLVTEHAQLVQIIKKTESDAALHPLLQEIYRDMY

[3] = target: T2, Peroxisome proliferator-activated receptor gamma (Homo sapiens, UniProt P37231); assay: Displacement of fluormone pan-PPAR green from recombinant GST-tagged human PPAR-gamma ligand binding domain (E235 to Y505 residues) extracted from Escherichia coli BL21 (DE3) cells by TR-FRET assay
T2 sequence (P37231 whole entry): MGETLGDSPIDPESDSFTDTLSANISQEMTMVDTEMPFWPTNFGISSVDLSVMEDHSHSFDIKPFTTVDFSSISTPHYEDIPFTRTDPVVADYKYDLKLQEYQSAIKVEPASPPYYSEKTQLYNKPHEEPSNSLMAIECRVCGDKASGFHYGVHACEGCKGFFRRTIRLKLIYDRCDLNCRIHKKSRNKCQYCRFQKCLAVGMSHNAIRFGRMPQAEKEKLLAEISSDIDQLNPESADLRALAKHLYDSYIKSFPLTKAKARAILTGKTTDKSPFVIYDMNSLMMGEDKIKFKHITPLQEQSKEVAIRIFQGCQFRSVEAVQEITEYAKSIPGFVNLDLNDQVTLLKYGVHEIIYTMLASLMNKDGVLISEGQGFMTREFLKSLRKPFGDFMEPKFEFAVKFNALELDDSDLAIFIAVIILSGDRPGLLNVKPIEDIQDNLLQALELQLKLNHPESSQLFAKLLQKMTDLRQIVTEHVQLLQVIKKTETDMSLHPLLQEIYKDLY

[4] = Toxicity in male db/db mouse model assessed as body weight gain at 2.5 to 10 mg/kg/day, ip administered for 4 weeks; assay type: organism-based; details: in vivo, 672 h, dose 2.5-10 mg/kg/day
Mus musculus [5] = assay: Effect on cdk5 protein expression in male db/db mouse white adipose tissue at 2.5 to 10 mg/kg/day, ip administered for 4 weeks by Western blotting analysis; assay type: functional, organism-based; details: dose 2.5-10 mg/kg/day
Mus musculus [6] = assay: Antidiabetic activity in male db/db mouse model assessed as upregulation of Glut4 gene expression in liver at 2.5 to 10 mg/kg/day, ip administered for 4 weeks by RT-qPCR analysis; assay type: functional, organism-based; details: dose 2.5-10 mg/kg/day
Mus musculus [7] = assay: Antidiabetic activity in male db/db mouse model assessed as decrease in PDK4 protein abundance in liver at 2.5 to 10 mg/kg/day, ip administered for 4 weeks by Western blotting analysis; assay type: functional, organism-based; details: dose 2.5-10 mg/kg/day
Mus musculus [8] = assay: Antidiabetic activity in male db/db mouse model assessed as decrease in serum insulin level at 2.5 to 10 mg/kg/day, ip preadministered for 4 weeks followed by glucose administration after 4 to 6 hrs of fasting and measured after 120 mins by intraperitoneal insulin tolerance test; assay type: functional, organism-based; details: dose 2.5-10 mg/kg/day
Mus musculus [9] = assay: Downregulation of PPAR-gamma protein expression in male db/db mouse white adipose tissue at 2.5 to 10 mg/kg/day, ip administered for 4 weeks by Western blotting analysis; assay type: functional, organism-based; details: dose 2.5-10 mg/kg/day
Homo sapiens = organism: Homo sapiens; assay: Binding affinity to PPAR-beta (unknown origin) at 0.5 uM in presence of fluormone pan-PPAR green tracer by TR-FRET assay
Mus musculus [10] = assay: Antidiabetic activity in male db/db mouse model assessed as increase in Glut4 protein abundance in white adipose tissue at 2.5 to 10 mg/kg/day, ip administered for 4 weeks by Western blotting analysis; assay type: functional, organism-based; details: dose 2.5-10 mg/kg/day
Mus musculus [11] = assay: Downregulation of PPAR-gamma protein expression in male db/db mouse liver at 2.5 to 10 mg/kg/day, ip administered for 4 weeks by Western blotting analysis; assay type: functional, organism-based; details: dose 2.5-10 mg/kg/day
[12] = target: T3, Peroxisome proliferator-activated receptor delta (Homo sapiens) (UniProt Q03181); assay: Binding affinity to PPAR-delta (unknown origin) at 0.5 uM in presence of fluormone pan-PPAR green tracer by TR-FRET assay
T3 sequence (whole entry): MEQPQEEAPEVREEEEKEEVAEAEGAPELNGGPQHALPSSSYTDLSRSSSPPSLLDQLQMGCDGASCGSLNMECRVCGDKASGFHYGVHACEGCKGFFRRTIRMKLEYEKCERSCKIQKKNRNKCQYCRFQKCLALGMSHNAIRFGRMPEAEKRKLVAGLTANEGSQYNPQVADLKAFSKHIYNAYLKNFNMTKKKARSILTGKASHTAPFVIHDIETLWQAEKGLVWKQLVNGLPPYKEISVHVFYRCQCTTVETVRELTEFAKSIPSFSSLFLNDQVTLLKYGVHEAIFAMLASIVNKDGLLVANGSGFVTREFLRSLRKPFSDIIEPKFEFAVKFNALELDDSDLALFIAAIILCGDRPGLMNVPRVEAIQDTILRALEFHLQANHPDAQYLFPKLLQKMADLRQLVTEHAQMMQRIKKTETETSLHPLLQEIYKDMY

Mus musculus [13] = assay: In vivo inhibition of Erk/Cdk5-mediated PPAR-gamma phosphorylation at Ser273 residue in male db/db mouse model assessed as decrease in phosphorylated-ERK expression in white adipose tissue at 2.5 to 10 mg/kg/day, ip administered for 4 weeks by Western blotting analysis; assay type: functional, organism-based; details: dose 2.5-10 mg/kg/day
Mus musculus [14] = assay: Antidiabetic activity in male db/db mouse model assessed as downregulation of SOCS3 gene expression in liver at 2.5 to 10 mg/kg/day, ip administered for 4 weeks by RT-qPCR analysis; assay type: functional, organism-based; details: dose 2.5-10 mg/kg/day
Mus musculus [15] = assay: In vivo inhibition of Erk/Cdk5-mediated PPAR-gamma phosphorylation at Ser273 residue in male db/db mouse model assessed as decrease in phosphorylated-ERK expression in liver at 2.5 to 10 mg/kg/day, ip administered for 4 weeks by Western blotting analysis; assay type: functional, organism-based; details: dose 2.5-10 mg/kg/day
[16] = Toxicity in male db/db mouse model assessed as decrease in liver weight at 10 mg/kg, ip administered for 4 weeks; assay type: organism-based; details: in vivo, 672 h
[17] = Toxicity in male db/db mouse model assessed as effect on spleen weight at 2.5 to 10 mg/kg/day, ip administered for 4 weeks; assay type: organism-based; details: in vivo, 672 h, dose 2.5-10 mg/kg/day

In the case of Cc1ccc(S(=O)(=O)Oc2ccc(S3(=O)=N[Se]c4cc(OS(=O)(=O)c5ccc(C)cc5)ccc43)cc2)cc1 (stereo not drawn), the Activity (Mus musculus [1]) is reported as “Active”, the Activity [2] is reported as “inactive” and the IC50 [3] is reported as 346 nM. For the same compound, the Activity [4] was “Non-toxic”, the Activity (Mus musculus [5]) was “inactive” and the Activity (Mus musculus [6]) was “Active”. For the same compound, the Activity (Mus musculus [7]) was “Active”, the Activity (Mus musculus [8]) was “Active” and the Activity (Mus musculus [9]) was “Active”. For the same compound, the Activity (Homo sapiens) was “inactive”, the Activity (Mus musculus [10]) was “Active” and the Activity (Mus musculus [11]) was “inactive”. The Activity [12] was “inactive”, the inhibition (Mus musculus [13]) was “Active” and the Activity (Mus musculus [14]) was “Active”. For the same compound, the inhibition (Mus musculus [15]) was “Active”, the Activity [16] was “Toxic” and the Activity [17] was “Non-toxic”.
